Measured values published in US20110130426A1, “Novel Sulphonamide Derivatives as Glucocorticoid Receptor Modulators for the Treatment of Inflammatory Diseases” (ASTRAZENECA AB, priority 2004, published 2011).

Molecular target: T1, recombinant human GR (Homo sapiens, UniProt P04150)
T1 construct: purchased Panvera/Invitrogen P2812 (kit P2893)
T1 sequence (P04150 1-777): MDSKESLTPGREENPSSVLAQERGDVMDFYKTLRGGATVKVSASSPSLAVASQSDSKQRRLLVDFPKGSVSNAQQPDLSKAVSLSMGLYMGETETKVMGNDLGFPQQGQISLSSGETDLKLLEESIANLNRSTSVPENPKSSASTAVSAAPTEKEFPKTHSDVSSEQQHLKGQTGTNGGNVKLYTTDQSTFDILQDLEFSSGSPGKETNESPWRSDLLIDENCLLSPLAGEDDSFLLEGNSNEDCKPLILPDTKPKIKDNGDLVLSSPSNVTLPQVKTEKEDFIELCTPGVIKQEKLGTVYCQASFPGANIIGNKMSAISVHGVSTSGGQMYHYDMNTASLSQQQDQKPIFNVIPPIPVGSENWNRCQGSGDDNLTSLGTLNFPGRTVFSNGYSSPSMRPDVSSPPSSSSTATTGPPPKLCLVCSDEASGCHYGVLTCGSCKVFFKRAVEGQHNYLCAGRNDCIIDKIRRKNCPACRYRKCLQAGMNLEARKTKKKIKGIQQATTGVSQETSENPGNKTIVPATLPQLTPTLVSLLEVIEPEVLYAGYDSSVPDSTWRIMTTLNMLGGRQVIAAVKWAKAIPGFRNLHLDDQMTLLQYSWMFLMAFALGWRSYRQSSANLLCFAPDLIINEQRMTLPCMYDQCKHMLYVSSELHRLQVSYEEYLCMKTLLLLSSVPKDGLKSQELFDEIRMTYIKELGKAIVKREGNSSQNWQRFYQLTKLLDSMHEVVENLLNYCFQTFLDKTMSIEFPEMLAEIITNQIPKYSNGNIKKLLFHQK
Assay: Human Glucocorticoid Receptor (GR) Assay, fluorescence polarization
Format: binding
Details: GS Red tracer, 2 hours at room temperature
Procedure: Human Glucocorticoid Receptor (GR) Assay
The assay is based on a commercial kit from Panvera/Invitrogen (Part number P2893). The assay technology is fluorescence polarization. The kit utilises recombinant human GR (Panvera, Part number P2812), a Fluoromone™ labelled tracer (GS Red, Panvera, Part number P2894) and a Stabilizing Peptide 10X (Panvera, Part number P2815). The GR and Stabilizing Peptide reagents are stored at −70° C. while the GS Red is stored at −20° C. Also included in the kit are 1M DTT (Panvera, Part number P2325, stored at −20° C.) and GR Screening buffer 10X (Panvera, Part number P2814, stored at −70° C. initially but once thawed stored at room temperature). Avoid repeated freeze/thaws for all reagents. The GR Screening buffer 10X comprises 100 mM potassium phosphate, 200 mM sodium molybdate, 1 mM EDTA and 20% DMSO.
Test compounds (1 μL) and controls (1 μL) in 100% DMSO were added to black polystyrene 384-well plates (Greiner low volume black flat-bottom, part number 784076). 0% control was 100% DMSO and 100% control was 10 μM Dexamethasone. Background solution ([…]; assay buffer 10X, Stabilizing Peptide, DTT and ice cold MQ water) was added to the background wells. GS Red solution (7 μL; assay buffer 10X, Stabilizing Peptide, DTT, GS Red and ice cold water) was added to all wells except background wells. GR solution (7 μL; assay buffer 10X, Stabilizing Peptide, DTT, GR and ice cold water) was added to all wells. The plate was sealed and incubated in a dark at room temperature for 2 hours. The plate was read in an Analyst plate reader (LJL Biosystems/Molecular Devices Corporation) or other similar plate reader capable of recording fluorescence polarization (excitation wavelength 530 nm, emission wavelength […] and a dichroic mirror at 561 nm). The IC50 values were calculated using XLfit model 205.

Compound	IC50 [nM]
Cc1ccc(C)c(S(=O)(=O)Nc2cccc(CCc3ccccn3)c2)c1 [Compound 49]	350
COc1cc(C)c(S(=O)(=O)NCc2c(-c3ccccc3)noc2C)c(C)c1C [Example 1, 4-Methoxy-2,3,6-trimethyl-N-(5-methyl-3-phenyl-isoxazol-4-ylmethyl)-benzenesulfonamide]	14
CCCCOc1ccc(S(=O)(=O)NCc2c(-c3ccccc3)noc2C)cc1 [Example 6, 4-n-Butoxy-N-(5-methyl-3-phenyl-isoxazol-4-ylmethyl)-benzenesulfonamide]	700
O=[N+]([O-])c1ccc(S(=O)(=O)NCc2ccc(-c3ccc(Cl)cc3)s2)cc1 [Example 20, N-{[5-(4-Chlorophenyl)-2-thienyl]methyl}-4-nitrobenzenesulfonamide]	59
Cc1c(S(=O)(=O)Nc2cccc(CCc3ccccn3)c2)cnn1-c1ccccc1 [Example 22, 5-Methyl-1-phenyl-N-[3-(2-pyridin-2-ylethyl)phenyl]-1H-pyrazole-4-sulfonamide]	99
Cn1nc(-c2ccc(S(=O)(=O)Nc3cccc(CCc4ccccn4)c3)s2)cc1C(F)(F)F [Example 23, 5-[1-Methyl-5-(trifluoromethyl)-1H-pyrazol-3-yl]-N-[3-(2-pyridin-2-ylethyl)phenyl]-thiophene-2-sulfonamide]	110
O=S(=O)(Nc1cccc(CCc2ccccn2)c1)c1ccc(-c2ccccn2)s1 [Example 27, 5-Pyridin-2-yl-N-[3-(2-pyridin-2-ylethyl)phenyl]thiophene-2-sulfonamide]	200
Cc1cc(S(=O)(=O)Nc2cccc(CCc3ccccn3)c2)c(C)s1 [Example 28, 2,5-dimethyl-N-[3-(2-pyridin-2-ylethyl)phenyl]thiophene-3-sulfonamide]	220
Cc1cc(C)cc(S(=O)(=O)Nc2cccc(CCc3ccccn3)c2)c1 [Example 29, 3,5-Dimethyl-N-[3-(2-pyridin-2-ylethyl)phenyl]benzenesulfonamide]	230
O=S(=O)(Nc1cccc(CCc2ccccn2)c1)c1ccc(Cl)s1 [Example 33, 5-Chloro-N-[3-(2-pyridin-2-ylethyl)phenyl]thiophene-2-sulfonamide]	650
Cc1cc(S(=O)(=O)Nc2cccc(CCc3ccccn3)c2)c(C)o1 [Example 35, 2,5-Dimethyl-N-[3-(2-pyridin-2-ylethyl)phenyl]furan-3-sulfonamide]	710
Cc1nn(C(F)F)c(C)c1S(=O)(=O)Nc1cccc(CCc2ccccn2)c1 [Example 36, 1-(Difluoromethyl)-3,5-dimethyl-N-[3-(2-pyridin-2-ylethyl)phenyl]-1H-pyrazole-4-sulfonamide]	810
N-{[5-(4-Chlorophenyl)-2-thienyl]methyl}-3-(4-methylphenoxy)benzenesulfonamide [Example 32]	390
N-{[5-(4-Chlorophenyl)-2-thienyl]methyl}-4-(pyridin-2-yloxy)benzenesulfonamide [Example 25]	170

Continued, values first:

IC50 [nM]	Compound
35	Cc1onc(-c2ccccc2)c1CNS(=O)(=O)c1ccc(-c2ccc(F)cc2)cc1 [Example 2, 4′-Fluoro-biphenyl-4-sulfonic acid (5-methyl-3-phenyl-isoxazol-4-ylmethyl)-amide]
370	Cc1onc(-c2ccccc2)c1CNS(=O)(=O)c1ccc(-c2ccccc2)cc1 [Example 5, Biphenyl-4-sulfonic acid (5-methyl-3-phenyl-isoxazol-4-ylmethyl)-amide]
36	Cc1cc(C)c(S(=O)(=O)NCc2ccc(-c3ccc(Cl)cc3)s2)c(C)c1 [Example 19, N-{[5-(4-Chlorophenyl)-2-thienyl]methyl}-2,4,6-trimethylbenzenesulfonamide]
62	O=S(=O)(NCc1ccc(-c2ccc(Cl)cc2)s1)c1ccc(F)cc1 [Example 21, N-{[5-(4-Chlorophenyl)-2-thienyl]methyl}-4-fluorobenzenesulfonamide]
170	O=S(=O)(NCc1ccc(-c2ccc(Cl)cc2)s1)c1ccccc1Br [Example 24, 2-Bromo-N-{[5-(4-chlorophenyl)-2-thienyl]methyl}benzenesulfonamide]
200	COc1ccc(S(=O)(=O)NCc2ccc(-c3ccc(Cl)cc3)s2)cc1 [Example 26, N-{[5-(4-Chlorophenyl)-2-thienyl]methyl}-4-methoxybenzenesulfonamide]
310	COc1cccc(S(=O)(=O)NCc2ccc(-c3ccc(Cl)cc3)s2)c1 [Example 30, N-{[5-(4-Chlorophenyl)-2-thienyl]methyl}-3-methoxybenzenesulfonamide]
330	COc1cc(C)c(S(=O)(=O)NCc2ccc(-c3ccc(Cl)cc3)s2)c(C)c1C [Example 31, N-{[5-(4-Chlorophenyl)-2-thienyl]methyl}-4-methoxy-2,3,6-trimethylbenzenesulfonamide]
660	O=S(=O)(Cc1ccc(Cl)cc1)NCc1ccc(-c2ccc(Cl)cc2)s1 [Example 34, 1-(4-Chlorophenyl)-N-{[5-(4-chlorophenyl)-2-thienyl]methyl}methanesulfonamide]
820	N#Cc1cccc(S(=O)(=O)NCc2ccc(-c3ccc(Cl)cc3)s2)c1 [Example 37, N-{[5-(4-Chlorophenyl)-2-thienyl]methyl}-3-cyanobenzenesulfonamide]
